Values quoted from earlier work in patent publication US20220079896A1, “DELAYED RELEASE COMPOSITIONS” (AMNEAL COMPLEX PRODUCTS RESEARCH LLC, priority 2020, published 2022).

Row | SMILES | mean single-dose terminal elimination half-life
1 | NC(=O)C[S@@+]([O-])C(c1ccccc1)c1ccccc1 [Armodafinil, (−)-2-[(R)-(diphenylmethyl)sulfinyl] acetamide] | approximately 13 hours
2 | NC(=O)C[S+]([O-])C(c1ccccc1)c1ccccc1 (centres unmarked) [modafinil] | approximately 13 hours
